This note sets out measurements from paper PMC12503911, “Cytotoxicity of Atropisomeric [1,1′‐Binaphthalene]‐2,2′‐Diamines (BINAM) and Analogs in Human Cancer Cells: Enantioselectivity, Structure–Activity Relationships, and Mechanism” (Chemmedchem, 2025).

Where two headings read alike, the source gives them in different places.

Holding throughout (assay): biochemical
What all share (parameters): 33PanQinase radiometric kinase activity assay, residual activity in % of control, contract lab Reaction Biology
Common to all, as to settings: mean of intraexperimental duplicates, n = 1

For assay [1], the target named is T1, CHK2 (Homo sapiens, UniProt O96017).
T1 construct: gene CHEK2
T1 sequence (O96017 whole entry): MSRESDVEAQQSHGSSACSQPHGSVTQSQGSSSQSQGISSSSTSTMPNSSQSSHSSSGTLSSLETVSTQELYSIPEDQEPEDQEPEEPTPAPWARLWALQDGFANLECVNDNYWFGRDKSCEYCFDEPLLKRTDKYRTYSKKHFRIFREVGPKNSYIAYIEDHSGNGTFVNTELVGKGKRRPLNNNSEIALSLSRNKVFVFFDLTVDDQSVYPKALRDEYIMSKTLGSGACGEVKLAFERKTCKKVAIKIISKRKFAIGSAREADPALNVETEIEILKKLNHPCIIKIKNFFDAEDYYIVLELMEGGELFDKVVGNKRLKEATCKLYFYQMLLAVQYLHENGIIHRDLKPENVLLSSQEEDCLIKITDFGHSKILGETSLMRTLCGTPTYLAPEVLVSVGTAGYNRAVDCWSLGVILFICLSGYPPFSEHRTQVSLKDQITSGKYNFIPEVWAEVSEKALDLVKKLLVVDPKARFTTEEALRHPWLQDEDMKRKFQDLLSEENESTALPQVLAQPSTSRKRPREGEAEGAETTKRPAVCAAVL
As to the method:
(§1) Kinase Screening was performed at Reaction Biology (Freiburg, Germany) by using the ^33PanQinase Assay.^[ [90] ^] Based on this knowledge, we commissioned a kinase screening by the firm Reaction Biology, targeting those kinases whose inhibition has shown an indirect effect on microtubules. In our selection, we included additional kinases that are known to be involved in centrosome amplification (PLK4^[ [82] ^]), centrosome clustering (CDK1/2,^[ [83] ^] PLK1^[ [84] ^]), spindle multipolarity (SRC^[ [85] ^]), microtubule dynamics (AKT1^[ [86] ^]), and LIMK1/2 activation (ROCK1^[ [87] ^]) or are crucial for the mitosis (BUB1B, NEK2/9, WEE1^[ [88] ^]). Nonetheless, 1(R) and 1(S) at 10 µM had almost no inhibitory effects on any of the chosen kinases (Table 4 ). Only Aurora A (mean residual activity for 1(R): 86%, 1(S): 98%) and ASK1 (mean residual activity for 1(R): 90%, 1(S): 117%) were slightly enantioselectively impacted. However, we theorize that those marginal inhibitions are not explanatory for the antiproliferative and morphological effects of 1(R) on cancer cells.

The target in assay [2] is PLK1 (Homo sapiens, UniProt P53350). As to the method:
as §1

For assay [3], the target named is LIMK2 (Homo sapiens, UniProt P53671). As for the experimental part: as §1
LIMK2, sequence (P53671 whole entry): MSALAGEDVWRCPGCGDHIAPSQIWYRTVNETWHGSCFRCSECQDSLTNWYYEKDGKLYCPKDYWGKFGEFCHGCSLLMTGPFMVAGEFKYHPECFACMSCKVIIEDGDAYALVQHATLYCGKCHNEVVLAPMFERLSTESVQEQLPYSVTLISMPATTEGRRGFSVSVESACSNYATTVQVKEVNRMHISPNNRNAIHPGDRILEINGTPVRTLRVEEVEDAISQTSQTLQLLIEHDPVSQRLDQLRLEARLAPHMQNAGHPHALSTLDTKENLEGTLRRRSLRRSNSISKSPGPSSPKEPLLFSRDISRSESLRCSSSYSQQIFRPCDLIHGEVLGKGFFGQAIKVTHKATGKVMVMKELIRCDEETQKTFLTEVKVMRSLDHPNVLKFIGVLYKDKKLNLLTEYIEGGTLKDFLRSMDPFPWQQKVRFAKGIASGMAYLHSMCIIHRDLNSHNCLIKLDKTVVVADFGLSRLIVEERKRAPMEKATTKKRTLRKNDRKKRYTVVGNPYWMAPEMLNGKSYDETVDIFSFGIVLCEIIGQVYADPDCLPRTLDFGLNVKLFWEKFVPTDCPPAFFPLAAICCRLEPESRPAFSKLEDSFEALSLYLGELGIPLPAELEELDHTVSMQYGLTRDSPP
The target in assay [4] is AKT1 (Homo sapiens, UniProt P31749). As for the experimental part:
as §1

Assay [5] deals with T2, Mps1/TTK (Homo sapiens, UniProt P33981).
T2 sequence (P33981 1-857): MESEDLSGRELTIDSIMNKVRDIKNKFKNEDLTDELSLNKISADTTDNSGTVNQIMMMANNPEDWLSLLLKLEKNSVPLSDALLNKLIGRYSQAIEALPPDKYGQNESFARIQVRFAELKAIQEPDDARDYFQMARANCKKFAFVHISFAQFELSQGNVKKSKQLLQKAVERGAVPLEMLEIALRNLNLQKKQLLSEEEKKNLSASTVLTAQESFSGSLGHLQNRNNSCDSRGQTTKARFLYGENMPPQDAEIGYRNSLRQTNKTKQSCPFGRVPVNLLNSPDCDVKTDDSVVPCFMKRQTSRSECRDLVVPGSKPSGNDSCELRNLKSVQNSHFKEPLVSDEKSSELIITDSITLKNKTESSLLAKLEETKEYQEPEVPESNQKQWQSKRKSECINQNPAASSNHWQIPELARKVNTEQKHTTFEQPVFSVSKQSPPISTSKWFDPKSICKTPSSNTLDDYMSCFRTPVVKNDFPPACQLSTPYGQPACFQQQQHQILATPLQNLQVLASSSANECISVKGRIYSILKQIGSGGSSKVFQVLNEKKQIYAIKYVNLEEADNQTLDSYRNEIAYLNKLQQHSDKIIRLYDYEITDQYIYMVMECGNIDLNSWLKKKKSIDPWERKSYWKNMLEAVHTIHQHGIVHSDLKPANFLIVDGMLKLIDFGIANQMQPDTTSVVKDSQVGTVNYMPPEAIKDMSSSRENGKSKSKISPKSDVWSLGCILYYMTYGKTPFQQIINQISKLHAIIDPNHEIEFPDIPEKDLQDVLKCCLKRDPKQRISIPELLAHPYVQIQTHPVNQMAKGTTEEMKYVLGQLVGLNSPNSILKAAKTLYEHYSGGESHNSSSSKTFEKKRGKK
As for the experimental part:
as §1

The target of assay [6] is T3, CHK1 (Homo sapiens, UniProt O14757).
T3 construct: gene CHEK1
T3 sequence (O14757 1-476): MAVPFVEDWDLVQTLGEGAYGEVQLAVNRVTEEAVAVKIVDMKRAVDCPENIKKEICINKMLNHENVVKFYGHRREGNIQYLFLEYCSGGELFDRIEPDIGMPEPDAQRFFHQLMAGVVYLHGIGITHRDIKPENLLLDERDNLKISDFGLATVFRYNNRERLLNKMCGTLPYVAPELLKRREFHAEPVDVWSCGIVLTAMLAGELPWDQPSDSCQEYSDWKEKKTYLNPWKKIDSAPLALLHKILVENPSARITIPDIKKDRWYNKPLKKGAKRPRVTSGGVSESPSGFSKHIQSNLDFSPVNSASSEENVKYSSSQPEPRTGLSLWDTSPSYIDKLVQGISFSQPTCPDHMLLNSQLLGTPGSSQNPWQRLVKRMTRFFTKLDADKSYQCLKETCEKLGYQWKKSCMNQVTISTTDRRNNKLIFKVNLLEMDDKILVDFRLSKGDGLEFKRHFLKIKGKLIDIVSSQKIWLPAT
As for the experimental part: as §1

For assay [7], the target named is T4, NEK2 (Homo sapiens, UniProt P51955).
T4 sequence (P51955 1-445): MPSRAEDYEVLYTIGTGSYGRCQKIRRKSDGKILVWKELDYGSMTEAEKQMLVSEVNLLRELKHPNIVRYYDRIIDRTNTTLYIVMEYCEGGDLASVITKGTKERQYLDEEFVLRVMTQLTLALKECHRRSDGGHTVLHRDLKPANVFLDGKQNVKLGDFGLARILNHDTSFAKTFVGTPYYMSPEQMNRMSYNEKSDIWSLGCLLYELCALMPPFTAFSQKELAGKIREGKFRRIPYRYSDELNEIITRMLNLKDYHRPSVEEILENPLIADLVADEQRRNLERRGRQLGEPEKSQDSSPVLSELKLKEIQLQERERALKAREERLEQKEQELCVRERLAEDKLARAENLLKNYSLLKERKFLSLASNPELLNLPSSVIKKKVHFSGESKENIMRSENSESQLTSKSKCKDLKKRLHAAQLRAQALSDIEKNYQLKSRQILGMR
As for the experimental part:
as §1

Where [8] appears, read: read-out: Residual activities [% of control] / 1(R) 10 µM.
Where [9] appears, read: read-out: Residual activities [% of control] / 1(S) 10 µM.

PLK1, sequence (P53350 whole entry): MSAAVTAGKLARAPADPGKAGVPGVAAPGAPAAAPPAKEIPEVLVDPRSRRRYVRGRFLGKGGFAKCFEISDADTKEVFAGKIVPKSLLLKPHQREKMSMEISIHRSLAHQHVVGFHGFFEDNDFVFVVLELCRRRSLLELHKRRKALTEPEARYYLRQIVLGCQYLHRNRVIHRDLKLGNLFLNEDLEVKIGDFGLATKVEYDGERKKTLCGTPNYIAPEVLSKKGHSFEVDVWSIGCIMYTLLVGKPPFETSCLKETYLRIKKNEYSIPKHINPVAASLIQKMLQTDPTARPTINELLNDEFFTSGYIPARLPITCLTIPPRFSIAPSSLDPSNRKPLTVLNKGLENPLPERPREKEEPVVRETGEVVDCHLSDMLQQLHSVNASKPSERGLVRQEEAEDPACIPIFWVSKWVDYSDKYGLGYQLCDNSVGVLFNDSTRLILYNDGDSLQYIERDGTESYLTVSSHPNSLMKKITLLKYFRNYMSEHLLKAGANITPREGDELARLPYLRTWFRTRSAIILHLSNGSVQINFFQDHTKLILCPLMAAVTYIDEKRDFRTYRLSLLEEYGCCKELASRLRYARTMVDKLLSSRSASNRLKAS
AKT1, sequence (P31749 whole entry): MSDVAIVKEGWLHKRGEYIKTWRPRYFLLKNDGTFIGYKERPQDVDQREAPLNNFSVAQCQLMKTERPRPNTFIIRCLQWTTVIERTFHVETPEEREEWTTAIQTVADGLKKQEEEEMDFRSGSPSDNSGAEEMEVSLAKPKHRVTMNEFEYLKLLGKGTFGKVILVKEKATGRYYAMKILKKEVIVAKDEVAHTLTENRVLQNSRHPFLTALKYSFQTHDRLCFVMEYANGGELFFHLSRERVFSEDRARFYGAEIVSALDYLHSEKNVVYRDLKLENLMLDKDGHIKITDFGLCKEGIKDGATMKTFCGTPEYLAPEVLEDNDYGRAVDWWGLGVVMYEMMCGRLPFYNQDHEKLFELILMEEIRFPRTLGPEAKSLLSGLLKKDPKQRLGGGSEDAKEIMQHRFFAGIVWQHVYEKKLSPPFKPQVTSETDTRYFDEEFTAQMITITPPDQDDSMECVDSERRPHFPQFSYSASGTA

Turning to `Nc1ccc2ccccc2c1-c1c(N)ccc2ccccc12` [1(R), (R)‐[1,1′‐binaphthalene]‐2,2′‐diamine], the remaining activity at 10 µM in assay [1] (setting [8]) is 97%; in assay [2] (setting [8]) it was 95%; in assay [3] (setting [8]) it was 106%; in assay [4] (setting [8]) it was 99%; in assay [5] (setting [8]), 98%; in assay [6] (setting [8]) it was 94%. Also, the remaining activity at 10 µM in assay [7] (setting [8]) came to 106%.

As to `Nc1ccc2ccccc2c1-c1c(N)ccc2ccccc12` [1(S), S‐BINAM], the remaining activity at 10 µM in assay [1] (setting [9]) came out at 104%; in assay [2] (setting [9]), 91%; in assay [3] (setting [9]), 98%; in assay [4] (setting [9]), 101%; in assay [5] (setting [9]), 97%; in assay [6] (setting [9]), 95%. In addition, the remaining activity at 10 µM in assay [7] (setting [9]) amounted to 96%.
